Test results as given in patent publication US10047105B2, “Gyrase inhibitors” (Merck Sharp & Dohme Corp., priority 2009, dated 2018).
In brackets after ≈: the same amount, converted by molar mass.

System: S. aureus ATCC 13709
Assay: MIC, antibacterial potency, S. aureus
Type: cell-based
Conditions: S. aureus

CCc1[nH]c2nc(Sc3nc4ccccc4s3)nc(NCCN3CCOCC3)c2c1C=O [700,102] and CCc1[nH]c2nc(Sc3nc4ccccc4s3)nc(NCCCN3CCOCC3)c2c1C=O [700,106] cannot be ordered by MIC, SA: over 64 µg/mL for the first, over 64 µg/mL for the second.

Compared with CCc1[nH]c2nc(Sc3cccnc3)nc(NCC3CCCCC3)c2c1C=O [700,078], CCc1[nH]c2nc(Sc3cccnc3)nc(NC3CCCC[C@H]3O)c2c1C=O (stereo partly shown) [700,132] is lower in MIC, SA: over 64 µg/mL for the first, 32 µg/mL (≈ 80.5 µM) for the second.

CCc1[nH]c2nc(Sc3nc4ccccc4s3)nc(Cl)c2c1C=O [700,099] and CCNc1nc(Sc2nc3ccccc3s2)nc2[nH]c(CC)c(C=O)c12 [700,105] cannot be ordered by MIC, SA: over 64 µg/mL for the first, over 64 µg/mL for the second.

Compared with CCc1[nH]c2nc(Sc3cccnc3)nc(NC(C)C)c2c1C(C)=O [700,122], CCc1[nH]c2nc(Sc3cccnc3)nc(Cl)c2c1C(C)=O [700,119] is lower in MIC, SA: over 64 µg/mL for the first, 64 µg/mL (≈ 192 µM) for the second.

First: CCOCCNc1nc(Sc2cccnc2)nc2[nH]c(CC)c(C=O)c12 [700,082]
Second: CCc1[nH]c2nc(Sc3cccnc3)nc(NCCOC)c2c1C=O [700,094]
The MIC, SA of the first is higher: over 64 µg/mL for the first, 64 µg/mL (≈ 179 µM) for the second.

CCOC(=O)c1ccc(CNc2nc(Sc3cccnc3)nc3[nH]c(CC)c(C=O)c23)o1 [700,135] and CCc1[nH]c2nc(Sc3cccnc3)nc(NCc3ccc(C)o3)c2c1C=O [700,077] cannot be ordered by MIC, SA: over 64 µg/mL for the first, over 64 µg/mL for the second.

CCc1[nH]c2nc(Sc3nc4ccccc4s3)nc(NC[C@H](C)O)c2c1C=O [700,100] and C#CCNc1nc(Sc2nc3ccccc3s2)nc2[nH]c(CC)c(C=O)c12 [700,104] cannot be ordered by MIC, SA: over 64 µg/mL for the first, over 64 µg/mL for the second.

CCc1[nH]c2nc(Sc3cccnc3)nc(N3CCN(CC(=O)N(C)C)CC3)c2c1C=O [700,085] and CCc1[nH]c2nc(Sc3cccnc3)nc(N3CCN(C(C)C)CC3)c2c1C=O [700,084] cannot be ordered by MIC, SA: over 64 µg/mL for the first, over 64 µg/mL for the second.

First: CCc1[nH]c2nc(Sc3cccnc3N)nc(Cl)c2c1C=O [700,088]
Second: CCc1[nH]c2nc(Sc3cccnc3)nc(Cl)c2c1C=O [700,075]
The MIC, SA of the first is higher: over 64 µg/mL for the first, 64 µg/mL (≈ 201 µM) for the second.

CCc1[nH]c2nc(Sc3cccnc3)nc(NCc3ccccc3OC)c2c1C=O [700,091] and CCc1[nH]c2nc(Sc3cccnc3)nc(NCc3cccc(S(C)(=O)=O)c3)c2c1C=O.Cl [700,098] cannot be ordered by MIC, SA: over 64 µg/mL for the first, over 64 µg/mL for the second.

Going from CCc1[nH]c2nc(Sc3cccnc3)nc(OC)c2c1C=O [700,129] to CCOc1nc(Sc2cccnc2)nc2[nH]c(CC)c(C=O)c12 [700,130], the MIC, SA falls from 16 µg/mL (≈ 50.9 µM) to 8 µg/mL (≈ 24.4 µM) (2-fold).

First: CCc1[nH]c2nc(Sc3cccnc3)nc(NCCCn3ccnc3)c2c1C(C)=O [700,121]
Second: CCc1[nH]c2nc(Sc3cccnc3)nc(NCCO)c2c1C=O [700,096]
The MIC, SA of the first is lower: 32 µg/mL (≈ 75.9 µM) for the first, over 64 µg/mL for the second.

CCc1[nH]c2nc(Sc3nc4ccccc4s3)nc(N)c2c1C [700,147] and CCc1[nH]c2nc(Sc3cnc4ccccc4n3)nc(N)c2c1C [700,149] cannot be ordered by MIC, SA: over 64 µg/mL for the first, over 64 µg/mL for the second.

CCc1[nH]c2nc(Sc3nc4ccccc4s3)nc(NC(C)C)c2c1C=O [700,101] and CCc1[nH]c2nc(Sc3nc4ccccc4s3)nc(NCc3cccnc3)c2c1C=O [700,103] cannot be ordered by MIC, SA: over 64 µg/mL for the first, over 64 µg/mL for the second.

CCc1[nH]c2nc(Sc3cccnc3)nc(NCC(C)C)c2c1C=O [700,076] and CCc1[nH]c2nc(Sc3cccnc3)nc(NCC(O)CO)c2c1C=O (stereo not shown) [700,090] cannot be ordered by MIC, SA: over 64 µg/mL for the first, over 64 µg/mL for the second.

CCc1[nH]c2nc(Sc3cccnc3)nc(N(C)CCN(C)C)c2c1C=O [700,137] and CCc1[nH]c2nc(Sc3cccnc3)nc(N[C@H](C)CO)c2c1C=O [700,131] are the same in MIC, SA: 64 µg/mL (≈ 166 µM) for the first, 64 µg/mL (≈ 179 µM) for the second.

Going from CCc1[nH]c2nc(Sc3cccnc3)nc(N[C@H]3CCCC[C@@H]3N)c2c1C=O [700,133] to CCc1[nH]c2nc(Sc3cccnc3)nc(NC34CC5CC(C3)C(=O)C(C5)C4)c2c1C=O [700,142], the MIC, SA falls from over 64 µg/mL to 32 µg/mL (≈ 71.5 µM).

First: CCc1[nH]c2nc(Sc3cccnc3)nc(NCCCCCC(=O)O)c2c1C=O [700,141]
Second: CCc1[nH]c2nc(Sc3cccc(C(=O)O)c3)nc(NC[C@H](C)O)c2c1C=O [700,127]
The MIC, SA of the first is lower: 64 µg/mL (≈ 155 µM) for the first, over 64 µg/mL for the second.

With CCc1[nH]c2nc(Sc3nc4ccccc4s3)nc(Cl)c2c1CO [700,109] the MIC, SA was over 64 µg/mL.
